Holding throughout (type): cell-based
Test [1] relates to MCT4 expressing MDA-MB-231 cell line. The experiment in a line: Glycolysis stress test (Seahorse XFe96). The note with it: 100, 50 and 30 μM, vs DMSO control. Here is the method: (§1) The metabolic profile of compound 1 was evaluated via mitochondrial stress test (MST) and glycolytic stress test (GST) on MCT4 expressing MDA-MB-231 and MCT1 expressing WiDr cell lines using Seahorse XFe96® analyzer (FIGS. 1A and 1B). 20,000 cells/well were seeded in 96-well microplates. MST was performed according to the manufacturer's protocol. The mitochondrial parameters: maximal respiration, ATP production, proton leak and spare respiratory capacity were calculated using wave software. DMSO was used as the negative control. A concentration study was performed in MDA-MB-231 cell line using compound 1 at 100, 50 and 30 μM concentrations. […] GST was also performed according to the manufacturer's protocol. The glycolytic parameters: glycolysis, glycolytic capacity, and glycolytic reserve were calculated using wave software, with DMSO as a negative control. In this case also, a concentration study was carried out at 100, 50 and 30 μM in MDA-MB-231 cell line.

The subject of test [2] is MCT1 expressing WiDr cell line. The experiment in a line: Mitochondrial stress test (Seahorse XFe96). The note with it: vs DMSO control. Here is the method:
as §1

The test system of test [3] is MCT4 expressing MDA-MB-231 cell line. The experiment in a line: Mitochondrial stress test (Seahorse XFe96). The settings on record: 100, 50 and 30 μM, vs DMSO control. Here is the method:
as §1

Test [4] has as its system 4T1 breast cancer cell line. The experiment in a line: Inhibition of pyruvate-driven respiration in permeabilized cells (Seahorse XFe96). The settings on record: varying concentrations.

SMILES strings stand for the structures.

On to `N#C/C(=C\c1ccc(N(c2ccc(F)cc2)c2ccc(F)cc2)cc1)C(=O)O` [Compound 1, (E)-3-(4-(bis(4-fluorophenyl)amino)phenyl)-2-cyanoacrylic Acid], for which, in test [1], the glycolytic capacity entry is listed as “significantly decreased” and the glycolytic reserve result is “significantly decreased”. Besides, in test [2], the ATP production result was “significantly decreased”, the maximal respiration entry is reported as “significantly decreased” and the spare respiratory capacity result is on record as “significantly decreased”. Further, in test [3], the ATP production entry is reported as “significantly decreased”, the maximal respiration result is listed as “significantly decreased” and the spare respiratory capacity result was “significantly decreased”.

Consider `COc1cc(N(c2ccc(F)cc2)c2ccc(F)cc2)ccc1/C=C(\C#N)C(=O)O` [Compound 2, (E)-3-(4-(bis(4-fluorophenyl)amino)-2-methoxyphenyl)-2-cyanoacrylic Acid], for which, in test [4] (intact 4T1 cells, before rPFO), the “oxygen consumption rate (OCR) after compound injection” value is on record as “Acute decreases in OCR were observed”. The “inhibition of pyruvate-driven respiration” value in test [4] (rPFO-permeabilized 4T1 cells, FCCP-stimulated pyruvate/malate/DCA) is given as “inhibited pyruvate-driven respiration in permeabilized cells in a dose dependent fashion”.

The values above are taken from patent US20210114975A1, “THERAPEUTIC COMPOUND AND METHODS” (Regents of the University of Minnesota, priority 2019, published 2021).
